Measured values published in ChEMBL document CHEMBL5291721, “A preclinical secondary pharmacology resource illuminates target-adverse drug reaction associations of marketed drugs” (Nat Commun, 2023).

Key:
[1] = target: T1, Adenosine receptor A1 (Homo sapiens, UniProt P30542)
T1 sequence (P30542 whole entry): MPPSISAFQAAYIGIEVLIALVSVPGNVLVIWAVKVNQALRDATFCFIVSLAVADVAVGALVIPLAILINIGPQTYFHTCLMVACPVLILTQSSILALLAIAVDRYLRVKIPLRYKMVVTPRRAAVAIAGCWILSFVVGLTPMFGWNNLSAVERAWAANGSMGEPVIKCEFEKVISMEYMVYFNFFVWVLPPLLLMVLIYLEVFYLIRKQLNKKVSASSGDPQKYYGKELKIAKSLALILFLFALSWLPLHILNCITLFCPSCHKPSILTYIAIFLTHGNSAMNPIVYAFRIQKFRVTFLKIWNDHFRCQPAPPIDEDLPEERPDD

[2] = target: T2, Adenosine receptor A3 (Homo sapiens, UniProt P0DMS8)
T2 sequence (P0DMS8 whole entry): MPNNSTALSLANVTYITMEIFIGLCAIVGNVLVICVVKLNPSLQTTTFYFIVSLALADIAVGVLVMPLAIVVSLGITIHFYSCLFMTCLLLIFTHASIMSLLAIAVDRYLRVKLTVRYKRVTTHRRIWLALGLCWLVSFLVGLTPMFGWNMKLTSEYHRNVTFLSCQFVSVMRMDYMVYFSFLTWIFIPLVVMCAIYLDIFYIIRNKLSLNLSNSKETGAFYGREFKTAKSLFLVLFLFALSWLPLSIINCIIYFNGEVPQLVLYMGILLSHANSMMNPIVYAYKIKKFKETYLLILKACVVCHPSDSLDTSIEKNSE

[3] = target: T3, Type-1 angiotensin II receptor (Homo sapiens, UniProt P30556)
T3 sequence (P30556 whole entry): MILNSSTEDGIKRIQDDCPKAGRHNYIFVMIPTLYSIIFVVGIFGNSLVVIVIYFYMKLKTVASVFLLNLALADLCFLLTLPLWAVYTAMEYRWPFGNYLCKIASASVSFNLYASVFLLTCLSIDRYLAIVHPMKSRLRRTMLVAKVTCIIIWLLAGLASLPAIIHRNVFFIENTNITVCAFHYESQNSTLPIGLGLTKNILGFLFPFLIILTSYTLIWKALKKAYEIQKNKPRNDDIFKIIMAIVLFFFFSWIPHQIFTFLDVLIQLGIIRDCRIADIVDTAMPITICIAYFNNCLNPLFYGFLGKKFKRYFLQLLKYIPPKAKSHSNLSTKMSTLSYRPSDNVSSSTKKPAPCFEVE

[4] = target: T4, Muscarinic acetylcholine receptor M2 (Homo sapiens, UniProt P08172); type: functional, cell-based
T4 sequence (P08172 whole entry): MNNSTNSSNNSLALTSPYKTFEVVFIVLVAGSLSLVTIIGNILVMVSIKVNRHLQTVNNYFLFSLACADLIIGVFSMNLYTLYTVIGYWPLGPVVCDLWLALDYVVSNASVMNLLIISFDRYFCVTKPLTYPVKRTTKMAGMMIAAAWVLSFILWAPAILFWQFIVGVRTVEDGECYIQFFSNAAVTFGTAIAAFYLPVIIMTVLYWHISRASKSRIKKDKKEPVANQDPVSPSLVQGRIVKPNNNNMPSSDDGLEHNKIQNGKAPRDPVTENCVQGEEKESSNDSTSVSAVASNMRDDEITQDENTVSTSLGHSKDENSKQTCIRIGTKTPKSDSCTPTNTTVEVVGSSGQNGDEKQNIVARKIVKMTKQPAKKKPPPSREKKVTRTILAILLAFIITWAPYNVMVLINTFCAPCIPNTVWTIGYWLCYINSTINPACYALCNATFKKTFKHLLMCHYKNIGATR

[5] = target: Neuronal acetylcholine receptor subunit alpha-4 (Homo sapiens, UniProt P43681)
Neuronal acetylcholine receptor subunit alpha-4, sequence (P43681 whole entry): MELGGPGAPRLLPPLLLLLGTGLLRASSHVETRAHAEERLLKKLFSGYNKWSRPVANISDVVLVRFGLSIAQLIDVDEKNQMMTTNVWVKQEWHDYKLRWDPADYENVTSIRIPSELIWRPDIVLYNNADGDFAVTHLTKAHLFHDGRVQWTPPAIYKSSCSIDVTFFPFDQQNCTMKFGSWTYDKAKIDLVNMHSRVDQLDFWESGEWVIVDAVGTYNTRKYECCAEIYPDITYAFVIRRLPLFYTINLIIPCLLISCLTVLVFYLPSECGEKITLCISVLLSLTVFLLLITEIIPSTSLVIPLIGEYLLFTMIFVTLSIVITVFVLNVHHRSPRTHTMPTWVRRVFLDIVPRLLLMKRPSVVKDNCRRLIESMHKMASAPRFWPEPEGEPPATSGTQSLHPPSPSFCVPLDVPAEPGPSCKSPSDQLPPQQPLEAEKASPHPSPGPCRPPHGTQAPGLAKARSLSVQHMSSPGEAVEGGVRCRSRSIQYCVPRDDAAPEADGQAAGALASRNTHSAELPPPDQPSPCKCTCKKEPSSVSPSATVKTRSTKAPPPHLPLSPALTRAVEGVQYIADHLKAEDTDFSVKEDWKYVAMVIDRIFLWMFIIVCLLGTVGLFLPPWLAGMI

[6] = target: 5-hydroxytryptamine receptor 2B (Homo sapiens, UniProt P41595); type: functional, cell-based
5-hydroxytryptamine receptor 2B, sequence (P41595 whole entry): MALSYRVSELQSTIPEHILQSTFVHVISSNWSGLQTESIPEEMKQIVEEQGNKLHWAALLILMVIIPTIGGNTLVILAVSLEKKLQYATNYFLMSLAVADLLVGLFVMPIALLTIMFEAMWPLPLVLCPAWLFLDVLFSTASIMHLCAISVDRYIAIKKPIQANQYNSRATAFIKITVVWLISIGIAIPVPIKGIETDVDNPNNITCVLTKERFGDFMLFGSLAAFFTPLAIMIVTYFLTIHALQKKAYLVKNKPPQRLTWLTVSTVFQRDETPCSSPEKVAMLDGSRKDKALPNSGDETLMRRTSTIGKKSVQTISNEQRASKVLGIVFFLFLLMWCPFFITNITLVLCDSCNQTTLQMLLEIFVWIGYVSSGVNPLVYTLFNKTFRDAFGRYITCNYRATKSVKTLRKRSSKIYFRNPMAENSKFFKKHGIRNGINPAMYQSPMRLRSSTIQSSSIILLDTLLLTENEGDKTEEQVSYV

[7] = target: T5, 5-hydroxytryptamine receptor 3A (Homo sapiens, UniProt P46098); type: functional
T5 sequence (P46098 whole entry): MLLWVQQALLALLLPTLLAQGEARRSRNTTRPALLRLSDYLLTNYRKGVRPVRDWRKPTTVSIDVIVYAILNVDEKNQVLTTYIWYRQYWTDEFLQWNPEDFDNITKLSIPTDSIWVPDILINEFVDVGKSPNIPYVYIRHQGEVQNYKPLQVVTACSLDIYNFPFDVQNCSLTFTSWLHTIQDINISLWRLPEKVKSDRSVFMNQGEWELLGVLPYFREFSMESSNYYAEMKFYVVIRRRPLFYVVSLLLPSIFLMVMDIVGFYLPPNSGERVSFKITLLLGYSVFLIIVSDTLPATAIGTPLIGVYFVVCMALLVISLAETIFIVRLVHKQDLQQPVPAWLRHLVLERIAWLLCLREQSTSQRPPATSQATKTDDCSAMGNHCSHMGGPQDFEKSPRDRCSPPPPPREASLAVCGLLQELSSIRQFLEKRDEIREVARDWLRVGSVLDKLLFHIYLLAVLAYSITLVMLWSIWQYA

[8] = target: Voltage-gated inwardly rectifying potassium channel KCNH2 (Homo sapiens, UniProt Q12809); type: functional; settings: read-out: AC50
Voltage-gated inwardly rectifying potassium channel KCNH2, sequence (Q12809 whole entry): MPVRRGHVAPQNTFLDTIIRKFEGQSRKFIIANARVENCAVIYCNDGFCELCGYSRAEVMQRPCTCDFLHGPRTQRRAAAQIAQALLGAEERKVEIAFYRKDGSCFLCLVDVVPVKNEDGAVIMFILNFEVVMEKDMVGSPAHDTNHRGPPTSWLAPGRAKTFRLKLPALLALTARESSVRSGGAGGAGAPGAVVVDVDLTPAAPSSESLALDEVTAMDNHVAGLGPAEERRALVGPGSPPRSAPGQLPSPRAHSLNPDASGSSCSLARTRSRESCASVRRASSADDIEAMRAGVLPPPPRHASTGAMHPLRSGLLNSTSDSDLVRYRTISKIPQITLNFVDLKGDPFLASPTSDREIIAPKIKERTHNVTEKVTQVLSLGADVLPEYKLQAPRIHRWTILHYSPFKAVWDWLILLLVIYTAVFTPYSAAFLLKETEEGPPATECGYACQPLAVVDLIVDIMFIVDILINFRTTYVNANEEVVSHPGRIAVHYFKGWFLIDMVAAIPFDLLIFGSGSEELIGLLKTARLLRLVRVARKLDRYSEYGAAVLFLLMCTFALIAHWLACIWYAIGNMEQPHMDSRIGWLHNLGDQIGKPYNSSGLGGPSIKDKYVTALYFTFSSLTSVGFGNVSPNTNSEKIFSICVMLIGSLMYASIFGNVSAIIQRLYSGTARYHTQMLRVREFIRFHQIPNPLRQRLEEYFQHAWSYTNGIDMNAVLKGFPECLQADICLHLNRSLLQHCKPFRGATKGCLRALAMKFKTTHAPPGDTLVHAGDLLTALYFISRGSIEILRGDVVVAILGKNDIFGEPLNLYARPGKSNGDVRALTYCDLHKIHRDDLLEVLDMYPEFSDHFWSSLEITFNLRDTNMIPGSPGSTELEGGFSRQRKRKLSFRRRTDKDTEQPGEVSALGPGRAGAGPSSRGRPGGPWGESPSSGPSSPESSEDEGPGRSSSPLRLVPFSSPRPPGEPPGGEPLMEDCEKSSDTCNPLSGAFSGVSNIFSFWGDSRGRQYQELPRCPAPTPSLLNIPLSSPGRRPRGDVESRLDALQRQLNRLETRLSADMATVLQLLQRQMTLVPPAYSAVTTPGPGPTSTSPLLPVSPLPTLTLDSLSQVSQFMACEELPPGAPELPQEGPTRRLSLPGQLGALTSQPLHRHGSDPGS

[9] = target: Motilin receptor (Homo sapiens, UniProt O43193)
Motilin receptor, sequence (O43193 whole entry): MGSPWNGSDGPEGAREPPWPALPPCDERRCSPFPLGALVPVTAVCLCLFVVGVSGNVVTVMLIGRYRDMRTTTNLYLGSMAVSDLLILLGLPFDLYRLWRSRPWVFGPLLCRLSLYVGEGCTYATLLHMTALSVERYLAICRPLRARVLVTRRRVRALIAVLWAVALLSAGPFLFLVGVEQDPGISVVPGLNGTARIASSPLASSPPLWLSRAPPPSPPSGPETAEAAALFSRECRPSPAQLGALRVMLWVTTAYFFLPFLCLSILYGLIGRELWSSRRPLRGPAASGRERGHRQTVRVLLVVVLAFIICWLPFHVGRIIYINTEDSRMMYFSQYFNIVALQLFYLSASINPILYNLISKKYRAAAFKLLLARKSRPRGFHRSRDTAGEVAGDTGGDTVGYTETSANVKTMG

[10] = target: Delta-type opioid receptor (Homo sapiens, UniProt P41143)
Delta-type opioid receptor, sequence (P41143 whole entry): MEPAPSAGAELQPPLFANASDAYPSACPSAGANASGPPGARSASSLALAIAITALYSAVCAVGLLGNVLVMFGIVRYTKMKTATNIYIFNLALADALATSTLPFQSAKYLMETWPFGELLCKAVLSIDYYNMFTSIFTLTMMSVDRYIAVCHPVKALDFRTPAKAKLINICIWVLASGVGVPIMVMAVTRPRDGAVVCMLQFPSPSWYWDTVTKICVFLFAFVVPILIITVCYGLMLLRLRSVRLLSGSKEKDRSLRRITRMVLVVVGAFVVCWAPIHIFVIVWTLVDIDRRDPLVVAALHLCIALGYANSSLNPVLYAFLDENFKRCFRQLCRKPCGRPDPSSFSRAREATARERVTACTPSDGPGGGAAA

[11] = target: T6, Equilibrative nucleoside transporter 1 (Homo sapiens, UniProt Q99808)
T6 sequence (Q99808 whole entry): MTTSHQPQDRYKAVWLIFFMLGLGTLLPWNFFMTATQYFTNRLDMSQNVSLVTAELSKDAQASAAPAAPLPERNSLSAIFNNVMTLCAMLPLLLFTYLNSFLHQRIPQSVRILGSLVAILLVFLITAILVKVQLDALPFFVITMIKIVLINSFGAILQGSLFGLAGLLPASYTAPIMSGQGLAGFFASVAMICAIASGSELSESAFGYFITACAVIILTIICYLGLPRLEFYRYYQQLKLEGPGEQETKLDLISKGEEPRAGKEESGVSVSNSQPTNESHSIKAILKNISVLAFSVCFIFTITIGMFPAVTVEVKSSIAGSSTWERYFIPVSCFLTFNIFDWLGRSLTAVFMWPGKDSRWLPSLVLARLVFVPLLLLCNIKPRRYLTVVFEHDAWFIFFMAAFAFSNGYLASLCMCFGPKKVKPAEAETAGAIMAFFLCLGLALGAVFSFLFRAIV
Also: assay procedure not described here.

Compound | AC50 [1] [µM] | AC50 [2] [µM] | AC50 [3] [µM] | AC50 [4] [µM] | AC50 [5] [µM] | AC50 [6] [µM] | AC50 [7] [µM] | AC50 [8] [µM] | AC50 [9] [µM] | AC50 [10] [µM] | AC50 [11] [µM]
CO/N=C(\C(=O)N[C@@H]1C(=O)N2C(C(=O)[O-])=C(C[N+]3(C)CCCC3)CS[C@H]12)c1csc(N)n1 | > 300 | > 300 | > 300 | > 300 | > 300 | > 300 | > 300 | > 300 | > 300 | > 300 | > 300
COC(=O)N[C@H](C(=O)N1CCC[C@H]1c1nc(-c2ccc(-c3ccc(-c4c[nH]c([C@@H]5CCCN5C(=O)[C@@H](NC(=O)OC)C(C)C)n4)cc3)cc2)c[nH]1)C(C)C | > 30 | > 30 | > 30 | > 30 | > 30 | > 30 | > 30 | – | > 30 | > 30 | > 30
CCOC(=O)[C@H](CCc1ccccc1)N[C@@H](C)C(=O)N1CCC[C@H]1C(=O)O | > 30 | > 30 | > 30 | > 10 | > 10 | > 10 | > 10 | > 30 | > 10 | > 10 | > 30
Nc1nc(N)c2nc(-c3ccccc3)c(N)nc2n1 | > 30 | > 30 | > 30 | > 30 | > 30 | > 30 | > 30 | > 30 | > 30 | > 30 | > 30
C[C@H]1O[C@H](O[C@H]2[C@H](O)[C@@H](O)[C@@H](O[C@H]3[C@H](O)[C@@H](O)C(O)O[C@@H]3CO)O[C@@H]2CO)[C@H](O)[C@@H](O)[C@@H]1N[C@H]1C=C(CO)[C@@H](O)[C@H](O)[C@H]1O (stereo partly specified) [ACARBOSE] | > 30 | > 30 | > 30 | > 10 | > 30 | > 30 | > 10 | > 30 | > 30 | > 10 | > 30
CC(=O)c1ccc2c(c1)N(CCCN1CCN(CCO)CC1)c1ccccc1S2 [ACETOPHENAZINE] | > 30 | > 30 | > 30 | > 30 | > 30 | 4.49 | > 30 | 2.3 | 27 | > 30 | > 30
Oc1ncnc2[nH]ncc12 [ALLOPURINOL] | > 30 | > 30 | > 30 | > 10 | > 10 | > 10 | > 30 | > 30 | > 10 | > 30 | > 30
CC(N)Cc1ccccc1 (stereo unspecified) [AMPHETAMINE] | 18 | > 30 | > 30 | > 30 | > 30 | > 30 | > 30 | > 30 | > 30 | > 30 | > 30
CCC[C@@H]1C[C@@H](C(=O)N[C@@H]([C@H]2O[C@H](SC)[C@H](O)[C@@H](O)[C@H]2O)[C@H](C)Cl)N(C)C1 [CLINDAMYCIN] | > 30 | > 30 | > 30 | > 10 | > 10 | > 10 | > 30 | – | > 10 | > 30 | > 30
CN(CCOc1ccc(NS(C)(=O)=O)cc1)CCc1ccc(NS(C)(=O)=O)cc1 [DOFETILIDE] | > 30 | > 30 | 9.5 | > 30 | > 10 | > 30 | > 30 | – | > 10 | > 30 | > 30
CCN(CC)CCNC(=O)c1cc(Cl)c(N)cc1OC [METOCLOPRAMIDE] | > 30 | > 30 | > 30 | – | > 10 | 4.3 | 3.55 | 2.77 | > 10 | > 30 | > 30
Cc1cccc(C)c1OCC(C)N (stereo unspecified) [MEXILETINE] | > 30 | > 30 | > 30 | > 30 | > 30 | 8.5 | – | > 30 | > 30 | – | > 30
COC(=O)C1=C(C)NC(C)=C(C(=O)OCC(C)C)C1c1ccccc1[N+](=O)[O-] (stereo unspecified) [NISOLDIPINE] | 20.4 | 0.614 | > 10 | > 10 | > 10 | 17 | > 30 | – | > 10 | > 30 | > 10
CNC(=O)c1cc(Oc2ccc(NC(=O)Nc3ccc(Cl)c(C(F)(F)F)c3)cc2)ccn1 [SORAFENIB] | > 30 | 1.88 | 11 | > 30 | > 30 | – | > 30 | > 30 | 2.8 | > 30 | > 30
OCc1cc([C@@H](O)CNCCCCCCOCCOCc2c(Cl)cccc2Cl)ccc1O [VILANTEROL] | > 30 | 29 | > 30 | > 30 | > 30 | > 30 | > 30 | – | 14 | > 30 | > 30
O=C(CCCCCCC(=O)Nc1ccccc1)NO [VORINOSTAT] | > 30 | > 30 | > 30 | > 30 | > 30 | > 30 | > 30 | – | > 30 | > 30 | > 30
